From patent publication US10555987B2, “GHRH agonists for the treatment of ischemic disorders” (UNIVERSITY OF MIAMI, priority 2012, dated 2020)
Non-standard residues stand in square brackets, D forms with d. Residues, ends and D or L forms follow the SMILES beside them. *: point of attachment. Desaminotyrosyl = O=C(CCc1ccc(O)cc1)*; NMeY = CN[C@@H](Cc1ccc(O)cc1)C(=O)O; Agmatine = N=C(N)NCCCCN*; Nle = CCCC[C@H](N)C(=O)O; Orn = NCCC[C@H](N)C(=O)O; Abu = CC[C@H](N)C(=O)O

Legend:
GHRH receptor = molecular target: T1, GHRH receptor (Homo sapiens, UniProt Q02643); assay: GHRH receptor binding, competition with 125I-labeled [His1,Nle27]hGHRH(1-32)NH2, human pituitary membrane homogenates (Table 6); set-up: Normal human pituitaries were purchased from the National Hormone and Peptide Program; tissue National Hormone and Peptide Program (A.F. Parlow, Harbor-UCLA Medical Center, Torrance, Calif.); host or cells: normal human pituitary, membrane fraction
T1 sequence (Q02643 23-423): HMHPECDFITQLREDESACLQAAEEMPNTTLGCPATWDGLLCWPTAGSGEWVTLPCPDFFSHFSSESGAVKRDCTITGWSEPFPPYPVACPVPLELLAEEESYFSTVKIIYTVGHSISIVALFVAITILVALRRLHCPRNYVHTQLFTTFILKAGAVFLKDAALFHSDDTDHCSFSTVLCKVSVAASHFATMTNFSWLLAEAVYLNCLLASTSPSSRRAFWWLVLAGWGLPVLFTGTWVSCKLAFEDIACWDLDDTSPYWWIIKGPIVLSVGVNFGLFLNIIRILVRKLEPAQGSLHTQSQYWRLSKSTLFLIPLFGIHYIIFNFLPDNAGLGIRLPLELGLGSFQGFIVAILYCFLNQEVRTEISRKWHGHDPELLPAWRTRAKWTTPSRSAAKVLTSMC
Description: Normal human pituitaries were purchased from the National Hormone and Peptide Program (A.F. Parlow, Los Angeles, County Harbor-UCLA Medical Center, Torrance, Calif.).

[1] = test system: superfused rat pituitary cells; assay: GH release in superfused rat pituitary cell system (Table 4); type: cell-based; settings: 1 nM; for GH Response (ng/ml), column 1: replicate 1; for GH Response (ng/ml), column 2: replicate 2; for GH Response (ng/ml), column 3: replicate 3
Description: Growth hormone releasing activity. Growth hormone releasing was assayed by using a superfused rat pituitary cell system as described in S. Vigh and A. V. Schally, Peptides 5, Suppl: 241-347, 1984. The new synthetic peptide analog of hGHRH P20356 and JI-38 (as control) were administered for 3 minutes (1 mL perfusate) at 1 nM concentration as shown below. Fractions of 1 ml are collected and the GH content in each was determined by ELISA.
Pituitary cells from 2 male rats were used for each channel of the superfusion system. The cells were exposed to 3-min pulses of the new GHRH agonists or to JI-38 as standard every 30 min. Outflowing samples of each channel (1 ml) were collected every 3 min, and GH levels were determined by ELISA.

[2] = test system: nitrosoglutathione reductase-/- (GSNOR-/-) mesenchymal stem cells (MSCs); assay: Tube formation of GSNOR-/- mesenchymal stem cells in Matrigel; type: cell-based, mouse; settings: GSNOR-/- MSCs on Matrigel, 6 to 24 hours
Description: Bone marrow-derived MSCs isolated from wildtype and GSNOR^−/− mice were grown in endothelial growth media (EGM-2, Lonza Biotech) for a period of 1 week. Cells were harvested by brief trypsinization and plated in 24-well culture dishes (5×10^4 cells/well) pre-coated with 300 μl of Matrigel (BD Biosciences). Cells were incubated in endothelial basal media (Lonza Biotech) supplemented with 0.1% bovine serum albumin, in the presence or absence of GHRH agonist peptides P-20356 and P-27409. After 6 to 24 hours, tube formation potential was quantified in each sample by measuring the number and length of tubes formed using Image J Software (NIH).

[3] = fraction 1 (P-20356)/21 (JI-38)
[4] = fraction 2 (P-20356)/22 (JI-38)
[5] = fraction 3 (P-20356)/23 (JI-38)
[6] = fraction 4 (P-20356)/24 (JI-38)
[7] = fraction 5 (P-20356)/25 (JI-38)

SMILES | GH Response (ng/ml), Average [1, 3] | GH Response (ng/ml), column 1 [1, 3] | GH Response (ng/ml), column 2 [1, 3] | GH Response (ng/ml), Average [1, 4] | GH Response (ng/ml), column 1 [1, 4] | GH Response (ng/ml), column 2 [1, 4] | GH Response (ng/ml), Average [1, 5] | GH Response (ng/ml), column 1 [1, 5] | GH Response (ng/ml), column 2 [1, 5] | GH Response (ng/ml), Average [1, 6] | GH Response (ng/ml), column 1 [1, 6] | GH Response (ng/ml), column 2 [1, 6] | GH Response (ng/ml), Average [1, 7] | GH Response (ng/ml), column 1 [1, 7] | GH Response (ng/ml), column 2 [1, 7] | Tube formation [2] | other results
CCCC[C@H](NC(=O)[C@@H](NC(=O)[C@H](CC(=O)O)NC(=O)[C@H](CCC(N)=O)NC(=O)[C@H](CC(C)C)NC(=O)[C@H](CC(C)C)NC(=O)[C@H](CCCN)NC(=O)[C@H](CCCNC(=N)N)NC(=O)[C@H](C)NC(=O)[C@H](CO)NC(=O)[C@H](CC(C)C)NC(=O)[C@H](CCC(N)=O)NC(=O)[C@H](CC)NC(=O)[C@H](CC(C)C)NC(=O)[C@@H](NC(=O)[C@H](CCCN)NC(=O)[C@H](CCCNC(=N)N)NC(=O)[C@H](Cc1ccc(O)cc1)NC(=O)[C@H](CO)NC(=O)[C@H](CCC(N)=O)NC(=O)[C@@H](NC(=O)[C@H](Cc1ccccc1)NC(=O)[C@@H](NC(=O)[C@H](C)NC(=O)[C@H](CC(=O)O)NC(=O)[C@H](C)NC(=O)CCc1ccc(O)cc1)[C@@H](C)CC)[C@@H](C)O)C(C)C)[C@@H](C)CC)C(=O)N[C@@H](CC(=O)O)C(=O)NCCCCNC(=N)N [JI-38, [Dat^1, Gln^8, Orn^12,21, Abu^15, Nle^27, Asp^28, Agm^29]hGHRH(1-29)NH2, reference compound] (Desaminotyrosyl-ADAIFTQSYR[Orn]VL[Abu]QLSAR[Orn]LLQDI[Nle]D-Agmatine) | 49.27 ng/mL | 42.46 ng/mL | 56.07 ng/mL | 131.71 ng/mL | 143.58 ng/mL | 119.83 ng/mL | 194.68 ng/mL | 222.13 ng/mL | 167.23 ng/mL | 137.45 ng/mL | 142.96 ng/mL | 131.93 ng/mL | 96.70 ng/mL | 96.34 ng/mL | 97.05 ng/mL | – | IC50 (GHRH receptor; 125I-[His1,Nle27]hGHRH(1-32)NH2, human pituitary membranes, Table 6): 1.95 nM; Relative affinity (Binding potency) vs GHRH (GHRH receptor; GHRH(1-29) = 1, Table 6): 3.03; Relative affinity (Binding potency) vs JI-38 (GHRH receptor; JI-38 = 1, Table 6): 1
CCCC[C@H](NC(=O)[C@@H](NC(=O)[C@H](CC(=O)O)NC(=O)[C@H](CCC(N)=O)NC(=O)[C@H](CC(C)C)NC(=O)[C@H](CC(C)C)NC(=O)[C@H](CCCN)NC(=O)[C@H](CCCNC(=N)N)NC(=O)[C@H](C)NC(=O)[C@H](CO)NC(=O)[C@H](CC(C)C)NC(=O)[C@H](CCC(N)=O)NC(=O)[C@H](CC)NC(=O)[C@H](CC(C)C)NC(=O)[C@@H](NC(=O)[C@H](CCCN)NC(=O)[C@H](CCCNC(=N)N)NC(=O)[C@H](Cc1ccc(O)cc1)NC(=O)[C@H](CO)NC(=O)[C@H](CCC(N)=O)NC(=O)[C@@H](NC(=O)[C@H](Cc1ccccc1)NC(=O)[C@@H](NC(=O)[C@H](C)NC(=O)[C@H](CC(=O)O)NC(=O)[C@H](C)NC(=O)[C@H](Cc1ccc(O)cc1)NC)[C@@H](C)CC)[C@@H](C)O)C(C)C)[C@@H](C)CC)C(=O)N[C@@H](CC(=O)O)C(=O)NCCCCNC(=N)N [Peptide P-20356, [N—Me-Tyr^1, Gln^8, Orn^12, Abu^15, Orn^21, Nle^27, Asp^28, Agm^29]hGHRH(1-29) NH2] (H-[NMeY]ADAIFTQSYR[Orn]VL[Abu]QLSAR[Orn]LLQDI[Nle]D-Agmatine) | 52.45 ng/mL | 49.98 ng/mL | 54.99 ng/mL | 337.48 ng/mL | 310.58 ng/mL | 325.76 ng/mL | 556.46 ng/mL | 491.01 ng/mL | 602.1 ng/mL | 334.99 ng/mL | 399.95 ng/mL | 270.02 ng/mL | 197.91 ng/mL | 200.64 ng/mL | 195.18 ng/mL | formed tube-like structures similar to wildtype MSCs | GH-releasing potency in vitro, times more potent than JI-38 ([1]; superfused rat pituitary cells): about 3; GH Response (ng/ml), column 3 [1, 3]: 52.37 ng/mL; GH Response (ng/ml), column 3 [1, 4]: 376.11 ng/mL; GH Response (ng/ml), column 3 [1, 5]: 576.26 ng/mL
CCCC[C@H](NC(=O)[C@@H](NC(=O)[C@H](CC(=O)O)NC(=O)[C@H](CCC(N)=O)NC(=O)[C@H](CC(C)C)NC(=O)[C@H](CC(C)C)NC(=O)[C@H](CCCN)NC(=O)[C@H](CCCNC(=N)N)NC(=O)[C@H](C)NC(=O)[C@H](CO)NC(=O)[C@H](CC(C)C)NC(=O)[C@H](CCC(N)=O)NC(=O)[C@H](CC)NC(=O)[C@H](CC(C)C)NC(=O)[C@@H](NC(=O)[C@H](CCCN)NC(=O)[C@H](CCCNC(=N)N)NC(=O)[C@H](Cc1ccc(O)cc1)NC(=O)[C@H](CO)NC(=O)[C@H](CC(N)=O)NC(=O)[C@@H](NC(=O)[C@H](Cc1ccccc1)NC(=O)[C@@H](NC(=O)[C@H](C)NC(=O)[C@H](CC(=O)O)NC(=O)[C@@H](C)NC(=O)[C@H](Cc1ccc(O)cc1)NC)[C@@H](C)CC)[C@@H](C)O)C(C)C)[C@@H](C)CC)C(=O)N[C@@H](CC(=O)O)C(=O)N[C@@H](CCCNC(=N)N)C(=O)NC [Peptide P-27409, [N—Me-Tyr^1, D-Ala^2, Orn^12, Abu^15, Orn^21, Nle^27, Asp^28]hGHRH(1-29)NH—CH3] (H-[NMeY][dA]DAIFTNSYR[Orn]VL[Abu]QLSAR[Orn]LLQDI[Nle]DR-NHMe) | – | – | – | – | – | – | – | – | – | – | – | – | – | – | – | formed tube-like structures similar to wildtype MSCs | –
